# Experimental data from US8957062B2, “Substituted cyclopropyl compounds, compositions containing such compounds and methods of treatment” (Merck Sharp & Dohme Corp., priority 2011, dated 2015).
# Target: T1, human GPR119 (Homo sapiens, UniProt Q8TDV5)
# T1 sequence (Q8TDV5 1-308 limits assumed): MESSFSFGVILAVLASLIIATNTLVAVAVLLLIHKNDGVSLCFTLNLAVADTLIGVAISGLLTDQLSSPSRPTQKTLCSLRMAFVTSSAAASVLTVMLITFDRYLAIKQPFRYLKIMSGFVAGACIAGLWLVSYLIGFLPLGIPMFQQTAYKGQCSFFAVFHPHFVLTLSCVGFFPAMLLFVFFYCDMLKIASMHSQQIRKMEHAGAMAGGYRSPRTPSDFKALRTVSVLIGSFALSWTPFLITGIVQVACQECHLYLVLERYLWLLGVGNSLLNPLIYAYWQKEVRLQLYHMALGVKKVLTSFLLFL
# Assay: Measurement of GPR119 signaling (cAMP assay) in cells stably transfected with human GPR119
# Format: cell-based
# Details: stated in the example text; cAMP stimulation, human GPR119; read-out: GPR119 Human EC50
row,EC50 [nM],SMILES
1,0.1,"Cc1cc(-n2cnnn2)cnc1OCC[C@@H]1C[C@@H]1C1CCN(c2nc(C(C)C)no2)CC1 [Example 225, 2-(2-{(1S,2R)-2-[1-(3-isopropyl-1,2,4-oxidiazol-5-yl)piperidin-4-yl]cyclopropyl}ethoxy]-3-methyl-5-(1H-tetrazol-1-yl)pyridine]"

# Same assay, conditions: table column; cAMP stimulation, human GPR119; read-out: GPR119 Human EC50
row,SMILES,EC50 [nM]
1,CC(C)c1noc(N2CCC([C@H]3C[C@H]3CCOc3ccc(CC(=O)N(C)C4(C)CCCC4)c(F)c3)CC2)n1 [Example 165],8.1
2,CC(C)c1noc(N2CCC([C@H]3C[C@H]3CCOc3ccc(CC(=O)N(C)CCn4cncn4)c(F)c3)CC2)n1 [Example 168],7.9
3,CC(C)c1noc(N2CCC([C@H]3C[C@H]3CCOc3ccc(CC(=O)N(C)CC4CCC(=O)N4C)c(F)c3)CC2)n1 (stereo partly drawn) [Example 169],7.7
4,CC(C)c1noc(N2CCC([C@H]3C[C@H]3CCOc3ccc(CC(=O)N(C)CC4CCC(=O)N4)c(F)c3)CC2)n1 (stereo partly drawn) [Example 170],7.9
5,CC(C)c1noc(N2CCC([C@H]3C[C@H]3CCOc3ccc(CC(=O)N4CCC(C)(O)C4)c(F)c3)CC2)n1 (stereo partly drawn) [Example 174],11.4
6,CC(C)c1noc(N2CCC([C@H]3C[C@H]3CCOc3ccc(CC(=O)N4CCn5c(nnc5C5CC5)C4)c(F)c3)CC2)n1 [Example 176],5.7
7,CC(C)c1noc(N2CCC([C@H]3C[C@H]3CCOc3ccc(CC(=O)N4CCn5nc(C(F)(F)F)nc5C4C)c(F)c3)CC2)n1 (stereo partly drawn) [Example 178],14
8,CC(C)c1noc(N2CCC([C@H]3C[C@H]3CCOc3ccc(CC(=O)N4CCn5ccnc5C4)c(F)c3)CC2)n1 [Example 180],4.9
9,CC(C)c1noc(N2CCC([C@H]3C[C@H]3CCOc3ccc(CC(=O)N4Cc5nnc(C(F)(F)F)n5C(C)C4)c(F)c3)CC2)n1 (stereo partly drawn) [Example 182],8.7
10,CC(C)c1noc(N2CCC([C@H]3C[C@H]3CCOc3ccc(CC(=O)N4Cc5nnc(C(F)(F)F)n5C(C)(C)C4)c(F)c3)CC2)n1 [Example 185],8.8
11,CC(C)c1noc(N2CCC([C@H]3C[C@H]3CCOc3ccc(CC(=O)N4CC(n5ccnc5)C4)c(F)c3)CC2)n1 [Example 188],6.4
12,COCc1noc(N2CCC([C@H]3C[C@H]3CCOc3ccc(CC(=O)NC4CC4)c(F)c3)CC2)n1 [Example 198],13
13,COCc1noc(N2CCC([C@H]3C[C@H]3CCOc3ccc(CC(=O)N(C)C)c(F)c3)CC2)n1 [Example 201],5.9
14,COCc1noc(N2CCC([C@H]3C[C@H]3CCOc3ccc(CC(=O)N4CCOCC4)c(F)c3)CC2)n1 [Example 202],9.8
15,COCc1noc(N2CCC([C@H]3C[C@H]3CCOc3ccc(CC(=O)N4CCC[C@@H]4C(F)(F)F)c(F)c3)CC2)n1 [Example 203],5.1
16,CS(=O)(=O)c1ccc(OCC[C@@H]2C[C@@H]2C2CCN(c3nc(C4CC4)no3)CC2)nc1 [Example 210],6
17,CCCc1noc(N2CCC([C@H]3C[C@H]3CCOc3ccc(S(C)(=O)=O)cn3)CC2)n1 [Example 211],8
18,CS(=O)(=O)c1ccc(OCC[C@@H]2C[C@@H]2C2CCN(c3nc(C4CCC4)no3)CC2)nc1 [Example 212],4.8
19,Cc1noc(N2CCC([C@H]3C[C@H]3CCOc3ccc(S(C)(=O)=O)cn3)CC2)n1 [Example 213],11
20,COC(C)c1noc(N2CCC([C@H]3C[C@H]3CCOc3ccc(S(C)(=O)=O)cn3)CC2)n1 (stereo partly drawn) [Example 215],5.8
21,COCCc1noc(N2CCC([C@H]3C[C@H]3CCOc3ccc(S(C)(=O)=O)cn3)CC2)n1 [Example 216],26
22,CS(=O)(=O)c1ccc(OCC[C@@H]2C[C@@H]2C2CCN(c3nc(COCC(F)(F)F)no3)CC2)nc1 [Example 217],7.8
23,CCOCc1noc(N2CCC([C@H]3C[C@H]3CCOc3ccc(S(C)(=O)=O)cn3)CC2)n1 [Example 218],14
24,COCc1noc(N2CCC([C@H]3C[C@H]3CCOc3ccc(-n4cncn4)cc3)CC2)n1 [Example 223],7.2
25,COCc1noc(N2CCC([C@H]3C[C@H]3CCOc3ccc(-c4nnn(C)n4)cc3)CC2)n1 [Example 224],6.4

# Results, then the compound that gave them:
row,EC50 [nM],SMILES
1,4.7,CC(C)c1noc(N2CCC([C@H]3C[C@H]3CCOc3ccc(CC(=O)N4Cc5sccc5C(O)C4)c(F)c3)CC2)n1 (stereo partly drawn) [Example 189]
2,4.2,Cc1nc2c([nH]1)CN(C(=O)Cc1ccc(OCC[C@@H]3C[C@@H]3C3CCN(c4nc(C(C)C)no4)CC3)cc1F)C2 [Example 192]
3,3.7,CC(C)c1noc(N2CCC([C@H]3C[C@H]3CCOc3ccc(CC(=O)N4CCc5cccnc5C4)c(F)c3)CC2)n1 [Example 181]
4,3.6,CC(C)c1noc(N2CCC([C@H]3C[C@H]3CCOc3ccc(CC(=O)N4CC(c5cccnc5)C4)c(F)c3)CC2)n1 [Example 190]
5,3.6,COCc1noc(N2CCC([C@H]3C[C@H]3CCOc3ccc(CC(=O)N4CCC[C@H]4C(F)(F)F)c(F)c3)CC2)n1 [Example 204]
6,3.5,CC(C)c1noc(N2CCC([C@H]3C[C@H]3CCOc3ccc(CC(=O)N4CCc5nc(C(F)(F)F)sc5C4)c(F)c3)CC2)n1 [Example 184]
7,3.4,COCc1noc(N2CCC([C@H]3C[C@H]3CCOc3ccc(S(C)(=O)=O)cc3)CC2)n1 [Example 221]
8,3.2,CC(C)c1noc(N2CCC([C@H]3C[C@H]3CCOc3ccc(CC(=O)N4CCc5cncnc5C4)c(F)c3)CC2)n1 [Example 175]
9,3.2,CCc1noc(N2CCC([C@H]3C[C@H]3CCOc3ccc(S(C)(=O)=O)cn3)CC2)n1 [Example 214]
10,3.1,CC(C)c1noc(N2CCC([C@H]3C[C@H]3CCOc3ccc(CC(=O)N(C)Cc4cc[nH]n4)c(F)c3)CC2)n1 [Example 167]
11,3.1,COCc1noc(N2CCC([C@H]3C[C@H]3CCOc3cc(F)c(CC(=O)N4CCOCC4)c(F)c3)CC2)n1 [Example 207]
12,3,CC(C)c1noc(N2CCC([C@H]3C[C@H]3CCOc3ccc(CC(=O)N4CC(n5cccn5)C4)c(F)c3)CC2)n1 [Example 187]
13,2.9,CC(C)c1noc(N2CCC([C@H]3C[C@H]3CCOc3ccc(CC(=O)N4CCc5[nH]nnc5C4)c(F)c3)CC2)n1 [Example 197]
14,2.8,CC(C)c1noc(N2CCC([C@H]3C[C@H]3CCOc3ccc(CC(=O)NC4CCC(F)(F)C4)c(F)c3)CC2)n1 (stereo partly drawn) [Example 191]
15,2.6,CC(C)c1noc(N2CCC([C@H]3C[C@H]3CCOc3ccc(CC(=O)N(C)Cc4cscn4)c(F)c3)CC2)n1 [Example 166]
16,2.6,Cc1nc2c(s1)CN(C(=O)Cc1ccc(OCC[C@@H]3C[C@@H]3C3CCN(c4nc(C(C)C)no4)CC3)cc1F)CC2 [Example 179]
17,2.6,CC(C)c1noc(N2CCC([C@H]3C[C@H]3CCOc3ccc(CC(=O)N4CC(O)(C(F)(F)F)C4)c(F)c3)CC2)n1 [Example 186]

row,EC50 [nM],SMILES
1,2.5,COCc1noc(N2CCC([C@H]3C[C@H]3CCOc3cc(F)c(CC(=O)N(C)C)c(F)c3)CC2)n1 [Example 206]
2,2.3,COCc1noc(N2CCC([C@H]3C[C@H]3CCOc3ncc(-n4cnnn4)cc3C)CC2)n1 [Example 226]
3,2.2,CC(C)c1noc(N2CCC([C@H]3C[C@H]3CCOc3ccc(CC(=O)N4CCc5ccsc5C4)c(F)c3)CC2)n1 [Example 173]
4,2.1,Cc1nc2c(o1)CN(C(=O)Cc1ccc(OCC[C@@H]3C[C@@H]3C3CCN(c4nc(C(C)C)no4)CC3)cc1F)CC2 [Example 183]
5,2,COCc1noc(N2CCC([C@H]3C[C@H]3CCOc3ccc(CC(=O)N4CC(F)C4)c(F)c3)CC2)n1 [Example 199]
6,2,CC(C)c1noc(N2CCC([C@H]3C[C@H]3CCOc3ccc(S(C)(=O)=O)cn3)CC2)n1 [Example 209]
7,1.8,CC(C)c1noc(N2CCC([C@H]3C[C@H]3CCOc3ccc(CC(=O)N4CCc5oncc5C4)c(F)c3)CC2)n1 [Example 177]
8,1.7,CC(C)c1noc(N2CCC([C@H]3C[C@H]3CCOc3ccc(CC(=O)N(C)Cc4ccon4)c(F)c3)CC2)n1 [Example 164]
9,1.6,CC(C)c1noc(N2CCC([C@H]3C[C@H]3CCOc3ccc(CC(=O)N4CCn5ncnc5C4)c(F)c3)CC2)n1 [Example 195]
10,1.5,CC(C)c1noc(N2CCC([C@H]3C[C@H]3CCOc3ccc(CC(=O)N(C)Cc4cncs4)c(F)c3)CC2)n1 [Example 171]
11,1.5,CC(C)c1noc(N2CCC([C@H]3C[C@H]3CCOc3ccc(CC(=O)N4CCn5nc(C(F)(F)F)nc5C4)c(F)c3)CC2)n1 [Example 194]
12,1.4,Cc1nc2c(o1)CCN(C(=O)Cc1ccc(OCC[C@@H]3C[C@@H]3C3CCN(c4nc(C(C)C)no4)CC3)cc1F)C2 [Example 196]
13,1.3,CC(C)c1noc(N2CCC([C@H]3C[C@H]3CCOc3ccc(CC(=O)N4CCc5nccnc5C4)c(F)c3)CC2)n1 [Example 193]
14,1.2,COCc1noc(N2CCC([C@H]3C[C@H]3CCOc3ccc(CC(=O)N4CC(F)(F)C4)c(F)c3)CC2)n1 [Example 200]
15,1.2,COCc1noc(N2CCC([C@H]3C[C@H]3CCOc3cc(F)c(CC(=O)N4CCC4)c(F)c3)CC2)n1 [Example 205]
16,0.9,COCc1noc(N2CCC([C@H]3C[C@H]3CCOc3ccc(S(C)(=O)=O)c(F)c3)CC2)n1 [Example 222]
17,0.88,CC(C)c1noc(N2CCC([C@H]3C[C@H]3CCOc3ccc(CC(=O)N(C)C4COC4)c(F)c3)CC2)n1 [Example 172]
